Data taken from US20100035934A1, “PYRIDINYL-PYRAZOLE DERIVATIVES AND THEIR USE AS POTASSIUM CHANNEL MODULATORS” (NeuroSearch A/S, priority 2007, published 2010).

These molecules were tested against T1, hSK3 channels (Homo sapiens, UniProt Q9UGI6) (assay: Whole-cell patch-clamp recording of ionic current through SK channels (subtype 3) in HEK293 cells expressing hSK3). Conditions: baseline current at -75 mV, free Ca2+ 0.3-0.4 μM, room temperature.
T1 construct: expressed in transfected cells; host or cells: HEK293
Assay type: cell-based
Description: The ionic current through small-conductance Ca^2+-activated K^+ channels (SK channels, subtype 3) is recorded using the whole-cell configuration of the patch-clamp technique.
HEK293 tissue culture cells expressing hSK3 channels were grown in DMEM (Dulbecco's Modified Eagle Medium) supplemented with 10% FCS (foetal calf serum) at 37° C. in 5% CO2. At 60-80% confluency, cells were harvested by trypsin treatment and seeded on cover slips.
Experiments are carried out on one of several patch-clamp set-ups. Cells plated on coverslips are placed in a 15 μl perfusion chamber (flowrate ˜1 ml/min) mounted on an IMT-2 microscope. The microscopes are placed on vibration-free tables in grounded Faraday cages. All experiments are performed at room temperature (20-22° C.). EPC-9 patch-clamp amplifiers (HEKA-electronics, Lambrect, Germany) are connected to Macintosh computers via ITC16 interfaces. Data are stored directly on the hard-disk and analysed by IGOR software (Wavemetrics, Lake Oswega, Oreg., USA).
The whole-cell configuration of the patch-clamp technique is applied. In short: The tip of a borosilicate pipette (resistance 2-4 MΩ) is gently placed on the cell membrane using remote control systems. Light suction results in the formation of a giga seal (pipette resistance increases to more than […]) and the cell membrane underneath the pipette is then ruptured by more powerful suction. Cell capacitance is electronically compensated and the resistance between the pipette and the cell interior (the series resistance, Rs) is measured and compensated for. Usually the cell capacitance ranges from 5 to 20 pF (depending on cell size) and the series resistance is in the range 3 to 6 MΩ. Rs—as well as capacitance compensation are updated during the experiments (before each stimulus). All experiments with drifting Rs-values are discharged. Leak-subtractions are not performed.
The extracellular (bath) solution contains (in mM): 154 mM KCl, 0.1 CaCl2, 3 MgCl2, 10 HEPES (pH=7.4 with HCl). The test compound was dissolved 1000 times in DMSO from a concentrated stock solution and then diluted in the extracellular solution.
The intracellular (pipette) solution contained: 154 mM KCl, 10 mM HEPES, 10 mM EGTA. Concentrations of CaCl2 and MgCl2 needed to obtain the desired free concentrations of Ca^2+ (0.3-0.4 μM, Mg^2+ always 1 mM) were calculated by EqCal software (Cambridge, UK) and added.
After establishment of the whole-cell configuration, voltage-ramps (normally −80 to +80 mV) are applied to the cell every 5 seconds from a holding potential of 0 mV. […] Active compounds are quantified by calculating the change in baseline current at −75 mV. […]

Row | The SC100 (Stimulating Concentration required for increasing the baseline current by 100%) | SMILES
1 | 0.03 µM | Cc1cc(C)n(-c2cccc(Nc3ccc(Cl)cc3)n2)n1 [Compound A1, (4-Chloro-phenyl)-[6-(3,5-dimethyl-pyrazol-1-yl)-pyridin-2-yl]-amine]
2 | 0.3 µM | Clc1ccc(Nc2cccc(-n3cccn3)n2)c(Cl)c1 [Compound A8, (2,4-Dichloro-phenyl)-(6-pyrazol-1-yl-pyridin-2-yl)-amine]
3 | 0.4 µM | Cc1cc(C)n(-c2cccc(Nc3ccc(F)c(F)c3)n2)n1 [Compound C4, (3,4-Difluoro-phenyl)-[6-(3,5-dimethyl-pyrazol-1-yl)-pyridin-2-yl]-amine]
4 | 0.1 µM | CNc1cc(-n2nc(C)cc2C)nc(Nc2ccc(Cl)cc2)c1N [Compound D1, 3-Amino-2-(4-chlorophenylamino)-6-(3,5-dimethylpyrazol-1-yl)-4-methylamino-pyridine]
